ChEMBL document CHEMBL6127154, “Pursuing Polypharmacology: Benzothiopyranoindoles as G-Quadruplex Stabilizers and Topoisomerase I Inhibitors for Effective Anticancer Strategies” (ACS Med Chem Lett, 2024)

Columns and labels:
Quadruplex DNA [1] = experiment: Thermal stabilization of human Tel23-p G4 quadruplex DNA assessed as change in melting temperature (deltaT1/2) incubated for 10 mins by circular dichroism spectroscopic analysis (reference value: 68.2 +/- 0.1 degreeC); type: nucleic-acid assay
HOP-92 = experiment: Antiproliferative activity against human HOP-92 cells assessed as growth inhibition incubated for 48 hrs by SRB assay; type: functional
MOLT-4 = experiment: Antiproliferative activity against human MOLT-4 cells assessed as growth inhibition incubated for 48 hrs by SRB assay; type: functional
M14 = experiment: Antiproliferative activity against human M14 cells assessed as growth inhibition incubated for 48 hrs by SRB assay; type: functional
RXF 393 = experiment: Antiproliferative activity against human RXF 393 cells assessed as growth inhibition incubated for 48 hrs by SRB assay; type: functional
NCI-H460 = experiment: Antiproliferative activity against human NCI-H460 cells assessed as growth inhibition incubated for 48 hrs by SRB assay; type: functional
HT-29 = experiment: Antiproliferative activity against human HT-29 cells assessed as growth inhibition incubated for 48 hrs by SRB assay; type: functional
ACHN = experiment: Antiproliferative activity against human ACHN cells assessed as growth inhibition incubated for 48 hrs by SRB assay; type: functional
OVCAR-4 = experiment: Antiproliferative activity against human OVCAR-4 cells assessed as growth inhibition incubated for 48 hrs by SRB assay; type: functional
SK-MEL-2 = experiment: Antiproliferative activity against human SK-MEL-2 cells assessed as growth inhibition incubated for 48 hrs by SRB assay; type: functional
OVCAR-5 = experiment: Antiproliferative activity against human OVCAR-5 cells assessed as growth inhibition incubated for 48 hrs by SRB assay; type: functional
HOP-62 = experiment: Antiproliferative activity against human HOP-62 cells assessed as growth inhibition incubated for 48 hrs by SRB assay; type: functional
DU-145 = experiment: Antiproliferative activity against human DU-145 cells assessed as growth inhibition incubated for 48 hrs by SRB assay; type: functional
COLO 205 = experiment: Antiproliferative activity against human COLO 205 cells assessed as growth inhibition incubated for 48 hrs by SRB assay; type: functional
Hs-578T = experiment: Antiproliferative activity against human Hs-578T cells assessed as growth inhibition incubated for 48 hrs by SRB assay; type: functional
SNB-75 = experiment: Antiproliferative activity against human SNB-75 cells assessed as growth inhibition incubated for 48 hrs by SRB assay; type: functional
LOX IMVI = experiment: Antiproliferative activity against human LOX IMVI cells assessed as growth inhibition incubated for 48 hrs by SRB assay; type: functional
A498 = experiment: Antiproliferative activity against human A498 cells assessed as growth inhibition incubated for 48 hrs by SRB assay; type: functional
SNB-19 = experiment: Antiproliferative activity against human SNB-19 cells assessed as growth inhibition incubated for 48 hrs by SRB assay; type: functional
Malme-3M = experiment: Antiproliferative activity against human Malme-3M cells assessed as growth inhibition incubated for 48 hrs by SRB assay; type: functional
SR = experiment: Antiproliferative activity against human SR cells assessed as growth inhibition incubated for 48 hrs by SRB assay; type: functional
HL-60 = experiment: Antiproliferative activity against human HL-60 cells assessed as growth inhibition incubated for 48 hrs by SRB assay; type: functional
SN12C = experiment: Antiproliferative activity against human SN12C cells assessed as growth inhibition incubated for 48 hrs by SRB assay; type: functional
SF-268 = experiment: Antiproliferative activity against human SF-268 cells assessed as growth inhibition incubated for 48 hrs by SRB assay; type: functional
HCT-15 = experiment: Antiproliferative activity against human HCT-15 cells assessed as growth inhibition incubated for 48 hrs by SRB assay; type: functional
Quadruplex DNA [2] = experiment: Thermal stabilization of FAM labeled human Tel21T G4 quadruplex DNA assessed as change in melting temperature (deltaT1/2) in presence of 15 uM unlabeled duplex competitor (ds26) by FRET assay; type: nucleic-acid assay
dsDNA [3] = experiment: Binding affinity to human duplex ds26 DNA assessed as dissociation constant by MST analysis; type: nucleic-acid assay
Quadruplex DNA [4] = experiment: Binding affinity to human hybrid Tel23 G4 quadruplex DNA assessed as dissociation constant by MST analysis; type: nucleic-acid assay
dsDNA [5] = experiment: Binding affinity to human […] Tel26-hy DNA assessed as dissociation constant by MST analysis; type: nucleic-acid assay
Quadruplex DNA [6] = experiment: Binding affinity to human parallel c-Kit2 G4 quadruplex DNA assessed as dissociation constant by MST analysis; type: nucleic-acid assay
Quadruplex DNA [7] = experiment: Binding affinity to human hybrid c-Myc G4 quadruplex DNA assessed as dissociation constant by MST analysis; type: nucleic-acid assay
Quadruplex DNA [8] = experiment: Thermal stabilization of FAM labeled human Tel21T G4 quadruplex DNA assessed as change in melting temperature (deltaT1/2) in presence of unlabeled duplex competitor (ds26) by FRET assay; type: nucleic-acid assay
Quadruplex DNA [9] = experiment: Thermal stabilization of FAM labeled human Tel21T G4 quadruplex DNA assessed as change in melting temperature (deltaT1/2) in presence of 50 uM unlabeled duplex competitor (ds26) by FRET assay; type: nucleic-acid assay
NCI-H522 = experiment: Antiproliferative activity against human NCI-H522 cells assessed as growth inhibition incubated for 48 hrs by SRB assay; type: functional

ΔTm (Quadruplex DNA [1]) [°C] | Compound | GI (HOP-92) [µM] | GI (MOLT-4) [µM] | GI (M14) [µM] | GI (RXF 393) [µM] | GI (NCI-H460) [µM] | GI (HT-29) [µM] | GI (ACHN) [µM] | GI (OVCAR-4) [µM] | GI (SK-MEL-2) [µM] | GI (OVCAR-5) [µM] | GI (HOP-62) [µM] | GI (DU-145) [µM] | GI (COLO 205) [µM] | GI (Hs-578T) [µM] | GI (SNB-75) [µM] | GI (LOX IMVI) [µM] | GI (A498) [µM] | GI (SNB-19) [µM] | GI (Malme-3M) [µM] | also measured
> 20 | CCN(CC)CCn1c2ccc(O)cc2c2sc3cc(OC)ccc3c(=O)c21 | 2.58 | 0.389 | 1.64 | 1.31 | 1.22 | 1.75 | 1.13 | 1.81 | 9.15 | 2.22 | 6.03 | 1.71 | 3.08 | 1.95 | 2.39 | 1.21 | 3.08 | 1.51 | 1.87 | GI (SR): 1.11 µM; GI (HL-60): 1.72 µM; GI (SN12C): 5.83 µM; GI (SF-268): 7.34 µM; GI (HCT-15): 1.2 µM
> 20 | CCN(CC)CCn1c2ccc(OC)cc2c2sc3cc(OC)ccc3c(=O)c21 | 1.13 | 0.383 | 1.64 | 1.4 | 1.08 | 1.52 | 1 | 1.84 | 2.1 | 1.92 | 2.32 | 1.67 | 1.39 | 1.96 | 1.11 | 1.3 | 1.12 | 2.43 | 1.59 | ΔTm (Quadruplex DNA [2]): 1.9 °C; Kd (dsDNA [3]): 1300 nM; Kd (Quadruplex DNA [4]): 9000 nM; Kd (dsDNA [5]): 23000 nM; Kd (Quadruplex DNA [6]): 300 nM; Kd (Quadruplex DNA [7]): 2100 nM; ΔTm (Quadruplex DNA [8]): 12.6 °C; GI (SR): 0.704 µM; GI (HL-60): 1.77 µM; GI (SN12C): 2.03 µM; ΔTm (Quadruplex DNA [9]): 1.6 °C; GI (SF-268): 1.87 µM; GI (HCT-15): 0.861 µM; GI (NCI-H522): 1.71 µM
